Measured values from patent US8242144B2, “Stilbenes and chalcones for the prevention and treatment of cardiovascular diseases” (Resverlogix Corp., priority 2004, dated 2012).

What was measured:
human ApoA-I promoter [1] = test: ApoA-I promoter induction in Caco-2 intestinal cells (pAI.474-Luc luciferase reporter); type: cell-based; settings: Caco-2 cells, luciferase activity vs untreated/control, average values at 15 μM, 48 hours incubation
Method: Briefly, the promoter region of the gene encoding human ApoA-I was isolated and ligated upstream of the firefly luciferase gene to construct the reporter plasmid pAI.474-Luc. This reporter plasmid and pRSV-β-galactosidase (as a control for transfection efficiency) were co-transfected to Caco-2 cells. The Caco-2 cells were then incubated in a MEM selection media containing 20% fetal calf serum supplemented with G418 (final concentration: 0.5 mg/mL, Gibco) to give established strains that stably express from the reporter gene. […] Cells were starved for 24 hrs in MEM selection media containing 0.5% FBS. Then, a solution of a compound of the invention in DMSO or other appropriate solvent was added to the wells at a final concentration of 0 to 100 μM in MEM selection media containing 0.5% FBS.
Measures of luciferase activity were normalized to lysate protein concentrations, measured using Bradford Reagent (BioRad Protein Assay reagent Cat#500-0006). The luciferase activity of cells treated with various concentrations of test compounds was compared to that of control sample (i.e., solvent without any compound of the present invention added) and untreated samples.

human ApoA-I promoter [2] = test: ApoA-I promoter induction in HepG2 liver cells (pAI.474-Luc luciferase reporter); type: cell-based; settings: luciferase activity vs untreated/control, average values at 15 μM, 48 hours incubation
Method: This study determined whether compounds of the invention have an effect on ApoA-I promoter activity expression in HepG2 cells, a liver cell line. Cells were grown under conditions recommended by the ATCC and summarized by Wong.
The promoter region of the gene encoding human ApoA-I was isolated and ligated upstream the structure gene of firefly luciferase to construct a reporter plasmid (pAI.474-Luc). The reporter plasmid, along with pRSV-β-galactosidase (as a control for transfection efficiency) were co-transfected into HepG2 cells. The cells were then incubated in an MEM selection medium containing 20% fetal calf serum supplemented with G418 (final concentration: 0.5 mg/mL, Gibco) to give established strains that stably express from the reporter gene. The strains were seeded to a 6-well culture plates and incubated for 48 hours at 37° C. under 5% carbon dioxide. Cells were starved for 24 hrs in MEM selection media containing 0.5% FBS. Then, a solution of the compounds of the invention in DMSO (or other appropriate solvent) was added to the wells at a final concentration of 0 to 100 μM in MEM selection media containing 0.5% FBS.
After further incubation for 48 hours, the cells were harvested and lysed using Reporter Lysis Buffer (PROMEGA E3971), and 50 μL of luciferase assay reagent (PROMEGA E4550 Luciferase Reporter 1000 assay system) were added to measure luciferase activity with a luminometer (Fluoroskan Ascent FL from Thermo electron Corporation). Measures of luciferase activity were normalized to lysate protein concentrations, measured using Bradford Reagent (Biorad Protein Assay reagent Cat#500-0006).

[3] = Caco-2 permeability (in vitro Caco-2 intestinal transport model); type: in vitro ADME, human; settings: human, Caco-2
Description: (§1) The Caco-2 cell drug transport model is widely used for screening compounds in drug discovery to assess intestinal transport and predict absorption rates. […] Sun et al., “In vitro testing of drug absorption for drug ‘developability’ assessment: forming an interface between in vitro preclinical data and clinical outcome,” Curr. Opin. Drug Discov. Devel.

Caco-2 cells = test: as above; type: in vitro ADME, human; settings: in vitro Caco-2 intestinal transport model
Description: as §1

human ApoA-I promoter [4] = settings: Caco-2 cells, reported by Wong; cited from earlier work

SMILES: COc1ccc(C(=O)/C=C/c2ccc(O)cc2O)cc1 [2,4-Dihydroxy-4′-methoxy-chalcone]
- ApoA-I Promoter Induction (human ApoA-I promoter [1]): increased

SMILES: O=C(/C=C/c1ccc(O)cc1)c1ccc(O)cc1O [4,2′,4′-Trihydroxy-chalcone]
- ApoA-I Promoter Induction (human ApoA-I promoter [1]): increased

SMILES: Oc1ccc(/C=C/c2ccc(O)cc2)cc1 [4,4′-dihydroxy-stilbene]
- ApoA-I Promoter Induction (human ApoA-I promoter [1]): increased
- ApoA-I Promoter Induction (human ApoA-I promoter [2]): increased

SMILES: O=C(/C=C/c1ccc(O)cc1)c1ccccc1 [4-Hydroxy-chalcone]
- ApoA-I Promoter Induction (human ApoA-I promoter [1]): increased

SMILES: COc1ccc(/C=C/C(=O)c2ccccc2)cc1 [4-Methoxy-chalcone]
- ApoA-I Promoter Induction (human ApoA-I promoter [1]): increased

SMILES: Oc1ccc(/C=C/c2cc(O)cc(O)c2)cc1 [Example 1, Resveratrol]
- ApoA-I Promoter Induction (human ApoA-I promoter [1]): increased
- ApoA-I Promoter Induction (human ApoA-I promoter [2]): increased

SMILES: Oc1ccc(/C=C/c2ccc(O)nc2)cc1 [Example 2, 5-[(E)-2-(4-Hydroxy-phenyl)-vinyl]-pyridin-2-ol]
- ApoA-I Promoter Induction (human ApoA-I promoter [1]): increased

SMILES: COc1cc(O)ccc1/C=C/c1ccc(O)cc1 [Example 3, 4-[(E)-2-(4-Hydroxy-phenyl)-vinyl]-3-methoxy-phenol]
- ApoA-I Promoter Induction (human ApoA-I promoter [1]): increased
- ApoA-I Promoter Induction (human ApoA-I promoter [2]): increased
- melting point: 192 to 194 °C

SMILES: OCc1cc(O)ccc1/C=C/c1ccc(O)cc1 [Example 4, 3-Hydroxymethyl-4-[(E)-2-(4-hydroxy-phenyl)-vinyl]-phenol]
- ApoA-I Promoter Induction (human ApoA-I promoter [1]): increased
- Papp [3]: 1.79 ×10⁻⁶ cm/s
- melting point: 223 to 225 °C

SMILES: O=C(O)c1cc(/C=C/c2ccc(O)cc2)ccc1O [Example 5, 2-Hydroxy-5-[(E)-2-(4-hydroxyphenyl)vinyl]benzoic acid]
- ApoA-I Promoter Induction (human ApoA-I promoter [1]): no
- melting point: 241 to 243 °C

SMILES: O=[N+]([O-])c1cc(O)ccc1/C=C/c1ccc(O)cc1 [Example 6, 3-Nitro-4-[(E)-2-(4-hydroxyphenyl)-vinyl]phenol]
- ApoA-I Promoter Induction (human ApoA-I promoter [1]): increased
- Papp [3]: 1.95 ×10⁻⁶ cm/s
- ApoA-I Promoter Induction (human ApoA-I promoter [2]): increased
- melting point: 237 to 240 °C

SMILES: CCOC(=O)c1cc(/C=C/c2ccc(O)cc2)ccc1O [Example 7, (E)-Ethyl 2-hydroxy-5-(4-hydroxystyryl) benzoate]
- ApoA-I Promoter Induction (human ApoA-I promoter [1]): increased
- melting point: 269 to 271 °C

SMILES: NC(=O)c1cc(/C=C/c2ccc(O)cc2)ccc1O [Example 8, (E)-2-Hydroxy-5-(4-hydroxystyryl)benzamide]
- ApoA-I Promoter Induction (human ApoA-I promoter [1]): increased
- melting point: 272 to 274 °C

SMILES: CS(=O)(=O)c1cc(O)ccc1/C=C/c1ccc(O)cc1 [Example 9, 4-[(E)-2-(4-Hydroxyphenyl)vinyl]-3-methanesulfonylphenol]
- melting point: 244 to 245 °C

SMILES: Nc1cc(O)ccc1/C=C/c1ccc(O)cc1 [Example 10, 3-Amino-4-[(E)-2-(4-hydroxy-phenyl)vinyl]phenol]
- ApoA-I Promoter Induction (human ApoA-I promoter [1]): increased
- melting point: 229 to 232 °C

SMILES: CC(=O)Nc1cc(O)ccc1/C=C/c1ccc(O)cc1 [Example 11, N-{5-Hydroxy-2-[(E)-2-(4-hydroxyphenyl)vinyl]phenyl}-acetamide]
- melting point: 227 to 229 °C

SMILES: CN(C)C(=O)c1cc(O)ccc1/C=C/c1ccc(O)cc1 [Example 12, 5-Hydroxy-2-[2-(4-hydroxyphenyl)vinyl]-N,N-dimethyl-benzamide]
- ApoA-I Promoter Induction (human ApoA-I promoter [1]): increased
- melting point: 183.5 to 187.7 °C

SMILES: Oc1ccc(CCc2ccc(O)cc2)cc1 [Example 17, 4-[4-Hydroxy-phenethyl]-phenol]
- ApoA-I Promoter Induction (human ApoA-I promoter [1]): increased
- ApoA-I Promoter Induction (human ApoA-I promoter [2]): increased

SMILES: O=S(=O)(Nc1ccc(O)cc1)c1ccc(O)cc1 [Example 19, 4-Hydroxy-N-(4-hydroxyphenyl)-benzenesulfonamide]
- ApoA-I Promoter Induction (human ApoA-I promoter [1]): increased

SMILES: O=C(Oc1ccccn1)c1ccc(O)cc1 [Example 20, 4-Hydroxy-benzoic acid pyridin-2-yl ester]
- Papp [3]: 2 ×10⁻⁶ cm/s

SMILES: Oc1ccc(/N=N/c2ccc(O)cc2)cc1 [Example 21, 4-(4-Hydroxy-phenyl)-azophenol]
- Papp [3]: 8.73 ×10⁻⁶ cm/s

SMILES: CCCO [Propanol, reference compound]
- % Transported Paap (Caco-2 cells): 10.1 ×10⁻⁶ cm/s

SMILES: Oc1ccc(/C=C/c2cc(O)cc(O)c2)cc1 [resveratrol]
- stimulation of ApoA-I promoter activity at 4, 8, 16 and 24 hours following administration (human ApoA-I promoter [4]): significant stimulation
